Where a name gives a salt, the structure may show the parent alone. Read-outs that look alike come from different tables or passages of the source.
What was measured:
Citrobacter freundii = test: Activity in vitro: minimum inhibitory concentration; type: cell-based
Proteus rettgeri = test: as above; type: cell-based; settings: Providencia rettgeri
Escherichia coli [1] = test: Activity in vivo: survival of intraperitoneally infected mice; settings: sc, 96 h; mice infected i.p. with Escherichia coli; s.c. twice, 1 h and 3 h after infection; survival on 4th day; read-out: CD50 (dosage at which 50% of the animals survive)
Description: (§1) Groups of 5 mice are infected intraperitoneally with an aqueous suspension of various pathogens. The test substance in physiological sodium chloride solution is administered subcutaneously twice, i.e. 1 hour and 3 hours after the infection. The number of surviving animals is determined on the 4th day. Various dosages are administered and that dosage at which 50% of the experimental animals survive (CD50, mg/kg) is determined by interpolation.

Serratia marcescens [2] = test: as above; settings: sc, 96 h, mice infected i.p. with Serratia marcescens strain 1, s.c. twice, 1 h and 3 h after infection, survival on 4th day, read-out: CD50 (dosage at which 50% of the animals survive)
Description: as §1

Streptococcus pyogenes [3] = test: as above; settings: sc, 96 h; mice infected i.p. with Streptococcus pyogenes; s.c. twice, 1 h and 3 h after infection; survival on 4th day; read-out: CD50 (dosage at which 50% of the animals survive)
Description: as §1

Enterobacter cloacae [4] = test: as above; settings: sc, 96 h; mice infected i.p. with Enterobacter cloacae; s.c. twice, 1 h and 3 h after infection; survival on 4th day; read-out: CD50 (dosage at which 50% of the animals survive)
Description: as §1

Streptococcus faecalis = test: Activity in vitro: minimum inhibitory concentration; type: cell-based; settings: Enterococcus faecalis
Streptococcus viridans = test: as above; type: cell-based
Staphylococcus epidermis = test: as above; type: cell-based
Proteus mirabilis = test: as above; type: cell-based
Proteus inconstans = test: as above; type: cell-based; settings: Providencia alcalifaciens
Pseudomonas aeruginosa [5] = test: Activity in vivo: survival of intraperitoneally infected mice; settings: sc, 96 h; mice infected i.p. with Pseudomonas aeruginosa; s.c. three times, 1 h, 3 h and 5 h after infection; survival on 4th day; read-out: CD50 (dosage at which 50% of the animals survive)
Description: as §1
*Administered subcutaneously three times: 1 hour, 3 hours and 5 hours

Streptococcus pyogenes [6] = test: Activity in vitro: minimum inhibitory concentration; type: cell-based
Pseudomonas aeruginosa [7] = test: as above; type: cell-based
Escherichia coli [8] = test: as above; type: cell-based
Staphylococcus aureus = test: as above; type: cell-based
Proteus morganii = test: as above; type: cell-based; settings: Morganella morganii
Enterobacter aerogenes = test: as above; type: cell-based; settings: Klebsiella aerogenes
Streptococcus pneumoniae = test: as above; type: cell-based
Klebsiella pseumoniae = test: as above; type: cell-based
Enterobacter cloacae [9] = test: as above; type: cell-based
Serratia marcescens [10] = test: as above; type: cell-based
[11] = Streptococcus faecalis strain 1
[12] = Streptococcus faecalis strain 2
[13] = Streptococcus pyogenes strain 1, read-out: Minimum inhibitory concentration
[14] = Pseudomonas aeruginosa strain 3
[15] = Enterobacter aerogenes strain 1
[16] = Enterobacter aerogenes strain 2
[17] = read-out: Minimum inhibitory concentration, Streptococcus pyogenes strain 2

Compound: CC(=O)OCC1=C(C(=O)O)N2C(=O)[C@@H](NC(=O)/C(=N\OC(C)(C)C(=O)O)c3c[se]c(N)n3)[C@H]2SC1 [Product I, disodium salt]
- MIC (Citrobacter freundii; Citrobacter freundii strain 1): 100 µg/mL
- MIC (Citrobacter freundii; Citrobacter freundii strain 2): 1.6 µg/mL
- MIC (Proteus rettgeri): 0.1 µg/mL
- ED50 (Escherichia coli [1]): 0.067 mg/kg
- ED50 (Serratia marcescens [2]): 1.8 mg/kg
- ED50 (Streptococcus pyogenes [3]): 2.7 mg/kg
- ED50 (Enterobacter cloacae [4]): > 50 mg/kg
- MIC (Streptococcus faecalis; [11]): > 100 µg/mL
- MIC (Streptococcus faecalis; [12]): > 100 µg/mL
- MIC (Streptococcus viridans): 6.3 µg/mL
- MIC (Staphylococcus epidermis): 50 µg/mL
- MIC (Proteus mirabilis; Proteus mirabilis strain 3): 0.1 µg/mL
- MIC (Proteus mirabilis; Proteus mirabilis strain 4): 0.1 µg/mL
- MIC (Proteus mirabilis; Proteus mirabilis strain 5): 0.2 µg/mL
- MIC (Proteus inconstans): 0.012 µg/mL
- ED50 (Pseudomonas aeruginosa [5]): 23 mg/kg
- MIC (Streptococcus pyogenes [6]; [13]): 0.2 µg/mL
- MIC (Streptococcus pyogenes [6]; Streptococcus pyogenes strain 2, read-out: Minimum inhibitory concentration): 0.05 µg/mL
- MIC (Pseudomonas aeruginosa [7]; [14]): 1.6 µg/mL
- MIC (Escherichia coli [8]; Escherichia coli strain 1): 1.6 µg/mL
- MIC (Escherichia coli [8]; Escherichia coli strain 2): 0.2 µg/mL
- MIC (Escherichia coli [8]; Escherichia coli strain 3): 0.8 µg/mL
- MIC (Escherichia coli [8]; Escherichia coli strain 5): 0.4 µg/mL
- MIC (Staphylococcus aureus; Staphylococcus aureus strain 1): 50 µg/mL
- MIC (Staphylococcus aureus; Staphylococcus aureus strain 2): 100 µg/mL
- MIC (Staphylococcus aureus; Staphylococcus aureus strain 3): 50 µg/mL
- MIC (Staphylococcus aureus; Staphylococcus aureus strain 4): 100 µg/mL
- MIC (Proteus morganii): 0.8 µg/mL
- MIC (Enterobacter aerogenes; [15]): 0.4 µg/mL
- MIC (Enterobacter aerogenes; [16]): 0.2 µg/mL
- MIC (Streptococcus pneumoniae): 0.2 µg/mL
- MIC (Klebsiella pseumoniae; Klebsiella pseumoniae strain 1): 0.8 µg/mL
- MIC (Klebsiella pseumoniae; Klebsiella pseumoniae strain 2): 0.4 µg/mL
- MIC (Klebsiella pseumoniae; Klebsiella pseumoniae strain 3): 0.8 µg/mL
- MIC (Enterobacter cloacae [9]; Enterobacter cloacae strain 1): > 100 µg/mL
- MIC (Enterobacter cloacae [9]; Enterobacter cloacae strain 2): 6.3 µg/mL
- MIC (Enterobacter cloacae [9]; Enterobacter cloacae strain 3): > 100 µg/mL
- MIC (Serratia marcescens [10]; Serratia marcescens strain 1): 1.6 µg/mL
- MIC (Serratia marcescens [10]; Serratia marcescens strain 2): 3.1 µg/mL
- MIC (Serratia marcescens [10]; Serratia marcescens strain 3): 0.4 µg/mL

Compound: CC(C)(O/N=C(\C(=O)N[C@@H]1C(=O)N2C(C(=O)[O-])=C(C[n+]3ccccc3)CS[C@H]12)c1c[se]c(N)n1)C(=O)O [Product K, 1-[[(6R, 7R)-7-[(Z)-2-(2-amino-4-selenazolyl)-2-[(1-carboxy-1-methylethoxy)imino]acetamido]-2-carboxy-8-oxo-5-thia-1-azabicyclo[4.2.0]oct-2-en-3-yl]methyl]pyridinium hydroxide sodium salt (internal salt)]
- MIC (Citrobacter freundii; Citrobacter freundii strain 1): 12.5 µg/mL
- MIC (Citrobacter freundii; Citrobacter freundii strain 2): 0.4 µg/mL
- ED50 (Serratia marcescens [2]): 0.11 mg/kg
- ED50 (Streptococcus pyogenes [3]): 0.28 mg/kg
- MIC (Streptococcus faecalis; [11]): > 100 µg/mL
- MIC (Streptococcus faecalis; [12]): > 100 µg/mL
- MIC (Streptococcus viridans): 3.1 µg/mL
- MIC (Staphylococcus epidermis): 12.5 µg/mL
- MIC (Proteus mirabilis; Proteus mirabilis strain 3): 0.4 µg/mL
- MIC (Proteus mirabilis; Proteus mirabilis strain 4): 0.1 µg/mL
- MIC (Proteus mirabilis; Proteus mirabilis strain 5): 0.05 µg/mL
- MIC (Proteus inconstans): 0.05 µg/mL
- ED50 (Pseudomonas aeruginosa [5]): 1.1 mg/kg
- MIC (Streptococcus pyogenes [6]; [13]): 0.4 µg/mL
- MIC (Streptococcus pyogenes [6]; [17]): 0.1 µg/mL
- MIC (Pseudomonas aeruginosa [7]; [14]): 1.6 µg/mL
- MIC (Escherichia coli [8]; Escherichia coli strain 1): 0.4 µg/mL
- MIC (Escherichia coli [8]; Escherichia coli strain 2): 0.1 µg/mL
- MIC (Escherichia coli [8]; Escherichia coli strain 3): 0.8 µg/mL
- MIC (Escherichia coli [8]; Escherichia coli strain 4): 25 µg/mL
- MIC (Escherichia coli [8]; Escherichia coli strain 5): 0.4 µg/mL
- MIC (Staphylococcus aureus; Staphylococcus aureus strain 1): 12.5 µg/mL
- MIC (Staphylococcus aureus; Staphylococcus aureus strain 2): 50 µg/mL
- MIC (Staphylococcus aureus; Staphylococcus aureus strain 3): 12.5 µg/mL
- MIC (Staphylococcus aureus; Staphylococcus aureus strain 4): 12.5 µg/mL
- MIC (Proteus morganii): 0.2 µg/mL
- MIC (Enterobacter aerogenes; [15]): 0.4 µg/mL
- MIC (Enterobacter aerogenes; [16]): 0.2 µg/mL
- MIC (Streptococcus pneumoniae): 0.1 µg/mL
- MIC (Klebsiella pseumoniae; Klebsiella pseumoniae strain 1): 0.8 µg/mL
- MIC (Klebsiella pseumoniae; Klebsiella pseumoniae strain 2): 0.2 µg/mL
- MIC (Klebsiella pseumoniae; Klebsiella pseumoniae strain 3): 0.8 µg/mL
- MIC (Enterobacter cloacae [9]; Enterobacter cloacae strain 1): > 100 µg/mL
- MIC (Enterobacter cloacae [9]; Enterobacter cloacae strain 2): 1.6 µg/mL
- MIC (Enterobacter cloacae [9]; Enterobacter cloacae strain 3): 100 µg/mL
- MIC (Serratia marcescens [10]; Serratia marcescens strain 1): 0.8 µg/mL
- MIC (Serratia marcescens [10]; Serratia marcescens strain 2): 0.8 µg/mL
- MIC (Serratia marcescens [10]; Serratia marcescens strain 3): 0.1 µg/mL

Compound: CC(=O)OCC1=C(C(=O)[O-])N2C(=O)[C@@H](NC(=O)/C(=N\O)c3c[se]c(N)n3)[C@H]2SC1.[Na+] [Product L, (6R, 7R)-3-(acetoxymethyl)-7-[2-(2-amino-4-selenazolyl)-2-[(Z)-hydroxyimino]-acetamido]-8-oxo-5-thia-1-azabicyclo[4.2.0]oct-2-ene-2-carboxylic acid sodium salt]
- MIC (Citrobacter freundii; Citrobacter freundii strain 1): 3.1 µg/mL
- MIC (Citrobacter freundii; Citrobacter freundii strain 2): 0.025 µg/mL
- ED50 (Streptococcus pyogenes [3]): 0.08 mg/kg
- MIC (Streptococcus faecalis; [11]): 25 µg/mL
- MIC (Streptococcus faecalis; [12]): 25 µg/mL
- MIC (Streptococcus viridans): 0.8 µg/mL
- MIC (Staphylococcus epidermis): 0.4 µg/mL
- MIC (Proteus mirabilis; Proteus mirabilis strain 3): ≤ 0.025 µg/mL
- MIC (Proteus mirabilis; Proteus mirabilis strain 4): 0.05 µg/mL
- MIC (Proteus mirabilis; Proteus mirabilis strain 5): 0.05 µg/mL
- MIC (Proteus inconstans): ≤ 0.025 µg/mL
- MIC (Streptococcus pyogenes [6]; [13]): 0.05 µg/mL
- MIC (Streptococcus pyogenes [6]; [17]): ≥ 0.025 µg/mL
- MIC (Pseudomonas aeruginosa [7]; Pseudomonas aeruginosa strain 1): 50 µg/mL
- MIC (Pseudomonas aeruginosa [7]; [14]): 12.5 µg/mL
- MIC (Escherichia coli [8]; Escherichia coli strain 1): ≤ 0.025 µg/mL
- MIC (Escherichia coli [8]; Escherichia coli strain 2): ≤ 0.025 µg/mL
- MIC (Escherichia coli [8]; Escherichia coli strain 3): 1.6 µg/mL
- MIC (Escherichia coli [8]; Escherichia coli strain 4): 6.3 µg/mL
- MIC (Escherichia coli [8]; Escherichia coli strain 5): 0.1 µg/mL
- MIC (Staphylococcus aureus; Staphylococcus aureus strain 1): 0.2 µg/mL
- MIC (Staphylococcus aureus; Staphylococcus aureus strain 2): 0.4 µg/mL
- MIC (Staphylococcus aureus; Staphylococcus aureus strain 3): 0.4 µg/mL
- MIC (Staphylococcus aureus; Staphylococcus aureus strain 4): 0.4 µg/mL
- MIC (Proteus morganii): 0.4 µg/mL
- MIC (Enterobacter aerogenes; [15]): ≤ 0.025 µg/mL
- MIC (Enterobacter aerogenes; [16]): 0.4 µg/mL
- MIC (Streptococcus pneumoniae): 0.1 µg/mL
- MIC (Klebsiella pseumoniae; Klebsiella pseumoniae strain 1): ≤ 0.025 µg/mL
- MIC (Klebsiella pseumoniae; Klebsiella pseumoniae strain 2): ≤ 0.025 µg/mL
- MIC (Klebsiella pseumoniae; Klebsiella pseumoniae strain 3): ≤ 0.025 µg/mL
- MIC (Enterobacter cloacae [9]; Enterobacter cloacae strain 1): 200 µg/mL
- MIC (Enterobacter cloacae [9]; Enterobacter cloacae strain 2): 6.3 µg/mL
- MIC (Enterobacter cloacae [9]; Enterobacter cloacae strain 3): 25 µg/mL
- MIC (Serratia marcescens [10]; Serratia marcescens strain 1): 0.8 µg/mL
- MIC (Serratia marcescens [10]; Serratia marcescens strain 2): 1.6 µg/mL
- MIC (Serratia marcescens [10]; Serratia marcescens strain 3): 0.1 µg/mL
